Experimental data taken from the OligoGym collection.
Several values for one entry are separate records, joined by “and”; a condition that tells them apart may be missing. Identical values can stand only once. After the bases stand the sugars from the 5' end (letter, count) and the backbone: PS all phosphorothioate, else s phosphorothioate and o phosphodiester by linkage. Methylation of C is not given here. e = 2'-O-(2-methoxyethyl) (MOE); k = constrained ethyl (cEt); d = 2'-deoxy (DNA); m = 2'-O-methyl

Target: HSD17B13
Settings: ASO, HepaRG

Sequence	target mRNA inhibition (1 µM) [%]	other results
CTCTGGGACCAAGGAT (sugars k3 d10 k3, PS)	51	
CTCTTAGCTGTGCACT (sugars kkdddddddddkekek, PS)	56	
CTCTTTTTATAGACTG (sugars k3 d10 k3, PS)	63	
CTGAAATTGATACACC (sugars k3 d9 k3 e1, PS)	75	target mRNA inhibition (0.02 µM): 0%; target mRNA inhibition (0.078 µM): 17%; target mRNA inhibition (0.313 µM): 51%; target mRNA inhibition (1.25 µM): 61%; target mRNA inhibition (5 µM): 81%
CTGAGTAAACGACTCT (sugars k3 d10 k3, PS)	33	
CTGATTAATCTTGATG (sugars k3 d10 k3, PS)	32	
CTGATTACAGCATCAA (sugars k3 d10 k3, PS)	40	
CTGATTTAGAGAGCGA (sugars k3 d10 k3, PS)	61	
CTGCAAAGTTAATAGG (sugars k3 d10 k3, PS)	57	
CTGCATTAATGCCACC (sugars k3 d1 m1 d8 k3, PS)	52	
CTGCATTAATGCCACC (sugars k3 d10 k3, PS)	67	target mRNA inhibition (0.02 µM): 0%; target mRNA inhibition (0.078 µM): 0%; target mRNA inhibition (0.313 µM): 17%; target mRNA inhibition (1.25 µM): 40%; target mRNA inhibition (5 µM): 81%
CTGCCAGATTGCACAA (sugars k3 d10 k3, PS)	44	
CTGCCCTAGATTCTAC (sugars k3 d10 k3, PS)	33	
CTGCGCACATATTTTA (sugars k3 d10 k3, PS)	92	target mRNA inhibition (0.02 µM): 0%; target mRNA inhibition (0.078 µM): 0%; target mRNA inhibition (0.313 µM): 7%; target mRNA inhibition (1.25 µM): 52%; target mRNA inhibition (5 µM): 74%
CTGCTAGTGCCAAACC (sugars k3 d9 k3 e1, PS)	67	
CTGCTAGTGCCAAACC (sugars k3 d10 k3, PS)	74	
CTGCTGAAACTTGATC (sugars k3 d10 k3, PS)	50	
CTGGTAAAGGTAAGGG (sugars k3 d10 k3, PS)	58	
CTGTAATTGGCTCTTG (sugars k3 d10 k3, PS)	28	
CTGTAGGCTAAACCCT (sugars k3 d10 k3, PS)	47	
CTGTAGGTTTTGCTTC (sugars k3 d10 k3, PS)	27	
CTGTGCACTCATTCTG (sugars k3 d10 k3, PS)	51	
CTGTGTTAGCTTTAAT (sugars k3 d10 k3, PS)	67	target mRNA inhibition (0.02 µM): 9%; target mRNA inhibition (0.078 µM): 0%; target mRNA inhibition (0.313 µM): 28%; target mRNA inhibition (1.25 µM): 77%; target mRNA inhibition (5 µM): 92%
CTTAACAAACCTCCAC (sugars k3 d10 k3, PS)	3	

Sequence	target mRNA inhibition (1 µM) [%]	other results
CTTAAGATACCCAGGT (sugars k3 d1 m1 d8 k3, PS)	50	
CTTAAGATACCCAGGT (sugars k3 d10 k3, PS)	36	
CTTAAGATACCCAGGT (sugars kkdddddddddkekek, PS)	34	
CTTAAGGATCATTGCA (sugars k3 d10 k3, PS)	29	
CTTACCTTGTGCTTGG (sugars k3 d10 k3, PS)	34	
CTTACGACAGGTCATC (sugars k3 d10 k3, PS)	39	
CTTAGGAAAGCTCATG (sugars k3 d10 k3, PS)	0	
CTTAGTACCAAGACAC (sugars k3 d10 k3, PS)	60	
CTTATACTGAAGGCTG (sugars k3 d10 k3, PS)	48	
CTTATGTAATAGCCAG (sugars k2 d10 k3 e1, PS)	70	
CTTATGTAATAGCCAG (sugars kkdddddddddkekek, PS)	61	
CTTAUGTAATAGCCAG (sugars k3 d1 m1 d8 k3, PS)	75	target mRNA inhibition (0.02 µM): 0%; target mRNA inhibition (0.078 µM): 0%; target mRNA inhibition (0.313 µM): 34%; target mRNA inhibition (1.25 µM): 65%; target mRNA inhibition (5 µM): 91%
CTTCATAGTGGACTTC (sugars kkdddddddddkekek, PS)	45	
CTTCTCTTGGGTCCAT (sugars k3 d10 k3, PS)	51	
CTTCTTACGACTTCAT (sugars k3 d10 k3, PS)	45	
CTTGAACAGTCTTAAA (sugars k3 d9 k3 e1, PS)	43	
CTTGAACAGTCTTAAA (sugars k3 d10 k3, PS)	39	
CTTGACAATGGTTGAT (sugars k3 d10 k3, PS)	54	
CTTGACTAAGGAGCTA (sugars k3 d10 k3, PS)	24	
CTTGAGAGTGATTGCC (sugars k3 d10 k3, PS)	64	
CTTGATGTAGTGGGAG (sugars k3 d9 k3 e1, PS)	62	
CTTTAGTCAACAGTAC (sugars k3 d10 k3, PS)	12	
CTTTCTATCAACCTGC (sugars k3 d10 k3, PS)	68	
CTTTGAGACTCTTGTT (sugars k3 d9 k3 e1, PS)	57	

Sequence	target mRNA inhibition (1 µM) [%]	other results
CTTTGAGACTCTTGTT (sugars kkdddddddddkekek, PS)	42	
CTTTTGTCCACCTTTA (sugars k3 d10 k3, PS)	76	
CTTTTTATAGACTGGG (sugars kkdddddddddkekek, PS)	37	
GAAACTCACTTCCTAC (sugars k3 d10 k3, PS)	56	
GAAACTTGATCTCTTA (sugars k3 d1 m1 d8 k3, PS)	59	
GAAACTTGATCTCTTA (sugars k3 d9 k3 e1, PS)	79	target mRNA inhibition (0.02 µM): 0%; target mRNA inhibition (0.078 µM): 11%; target mRNA inhibition (0.313 µM): 60%; target mRNA inhibition (1.25 µM): 82%; target mRNA inhibition (5 µM): 90%
GAAAGATGGAATGAGC (sugars k3 d10 k3, PS)	54	
GAAATTGATACACCAA (sugars k3 d10 k3, PS)	67	
GAAATTTGTGAACCTG (sugars k3 d10 k3, PS)	32	
GAACAATCTCCCCAGC (sugars k3 d10 k3, PS)	63	
GAACAGTCTTAAACCT (sugars k3 d1 m1 d8 k3, PS)	75	target mRNA inhibition (0.02 µM): 0%; target mRNA inhibition (0.078 µM): 24%; target mRNA inhibition (0.313 µM): 53%; target mRNA inhibition (1.25 µM): 66%; target mRNA inhibition (5 µM): 69%
GAACAGTCTTAAACCT (sugars kkdddddddddkekek, PS)	63	
GAACCCAGTATTCACA (sugars k3 d10 k3, PS)	0	
GAAGAAGTGCTTTTGT (sugars k3 d10 k3, PS)	50	
GAAGATTAGTTAACCT (sugars k3 d10 k3, PS)	13	
GAAGTATGTGAACTCC (sugars k3 d10 k3, PS)	56	
GAAGTGATCCATATTC (sugars k3 d10 k3, PS)	44	
GAAGTTAGTATAGTTA (sugars kkdddddddddkekek, PS)	56	
GAAGUTAGTATAGTTA (sugars k3 d1 m1 d8 k3, PS)	43	
GAATACGCTGAGAGTT (sugars k3 d10 k3, PS)	11	
GAATAGAGTTGCACCG (sugars k3 d10 k3, PS)	55	
GAATAGCAAGCCAACA (sugars k3 d9 k3 e1, PS)	30	
GAATAGCAAGCCAACA (sugars k3 d10 k3, PS)	64	target mRNA inhibition (0.02 µM): 0%; target mRNA inhibition (0.078 µM): 4%; target mRNA inhibition (0.313 µM): 12%; target mRNA inhibition (1.25 µM): 20%; target mRNA inhibition (5 µM): 40% and 50%
GAATAGCAAGCCAACA (sugars kkdddddddddkekek, PS)	27	

Sequence	target mRNA inhibition (1 µM) [%]	other results
GAATAGTCTTCAGCAA (sugars k3 d10 k3, PS)	51	
GAATGCTACTTGAACA (sugars k3 d9 k3 e1, PS)	56	
GAATTGCTCACCCTTT (sugars k3 d10 k3, PS)	24	
GACAACAAACAATGGG (sugars k3 d10 k3, PS)	39	
GACAATTAACATTCGG (sugars k3 d10 k3, PS)	69	
GACAGACCAAGTAGCT (sugars k3 d10 k3, PS)	39	
GACAGTAGATTTGGTA (sugars k3 d10 k3, PS)	34	
GACAGTTGAGTAGTGT (sugars k3 d10 k3, PS)	46	
GACATGAGGTTTTGAT (sugars k3 d10 k3, PS)	52	
GACATGAGGTTTTGAT (sugars kkdddddddddkekek, PS)	55	
GACCTCAAATGTCTTG (sugars k3 d10 k3, PS)	12	
GACGATGTGGCCATGA (sugars k3 d10 k3, PS)	42	
GACTAAGGAGCTAGAT (sugars k3 d10 k3, PS)	25	
GACTACATTAACACCA (sugars k3 d10 k3, PS)	58	
GACTCCAAGTAGGAGT (sugars k3 d10 k3, PS)	0	
GACTGTTGAGCTCAAA (sugars k3 d10 k3, PS)	52	
GAGAAGATCGGCTGGA (sugars k3 d10 k3, PS)	6	
GAGAAGGCGGTATCAT (sugars k3 d10 k3, PS)	48	
GAGAATTGTTTAGTTC (sugars k3 d10 k3, PS)	47	
GAGACATGAGGTTTTG (sugars k3 d1 m1 d8 k3, PS)	61	
GAGACATGAGGTTTTG (sugars k3 d9 k3 e1, PS)	61	
GAGACATGAGGTTTTG (sugars k3 d10 k3, PS)	77	target mRNA inhibition (0.02 µM): 0%; target mRNA inhibition (0.078 µM): 0%; target mRNA inhibition (0.313 µM): 22%; target mRNA inhibition (1.25 µM): 65%; target mRNA inhibition (5 µM): 88%
